Assay results published in ChEMBL document CHEMBL1201862, “PubChem BioAssay data set” (2004).
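Five compound concentrations were applied to cells in 96-well plates for 48 hours; endpoints were derived by simple linear interpolation of the resulting dose-response curve. Abbreviation: GI50, concentration required for 50% inhibition of growth.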 Activity calls are given as the source filed them. Cut-off read from the data, not from the text of the source: active = GI50 up to about 1.1 µM and inactive = higher.

How the values were obtained:
Assay in all cases: NCI anticancer screen, dose series, 48 h
[1] = tested on: OVCAR-3
[2] = tested on: SN12C
[3] = tested on: HCC 2998
[4] = tested on: OVCAR-5
[5] = tested on: SK-MEL-2
[6] = tested on: UACC-62
[7] = tested on: NCI-H226
[8] = tested on: A498
[9] = tested on: SR
[10] = tested on: CAKI-1
[11] = tested on: MCF7
[12] = tested on: SF-268
[13] = tested on: K562
[14] = tested on: TK-10
[15] = tested on: M14
[16] = tested on: Hs-578T
[17] = tested on: SF-295
[18] = tested on: MDA-MB-231
[19] = tested on: HOP-62
[20] = tested on: Malme-3M
[21] = tested on: NCI-H23
[22] = tested on: SF-539
[23] = tested on: RPMI-8226
[24] = tested on: A549
[25] = tested on: HL-60
[26] = tested on: SNB-19
[27] = tested on: 786-0
[28] = tested on: SK-MEL-5
[29] = tested on: CCRF-CEM
[30] = tested on: UACC-257
[31] = tested on: HCT-116
[32] = tested on: T47D
[33] = tested on: U-251
[34] = tested on: PC-3
[35] = tested on: HCT-15
[36] = tested on: SW-620
[37] = tested on: LOX IMVI
[38] = tested on: HT-29
[39] = tested on: IGROV-1
[40] = tested on: MOLT-4
[41] = tested on: OVCAR-4
[42] = tested on: DU-145
[43] = tested on: OVCAR-8
[44] = tested on: KM12
[45] = tested on: NCI-H522
[46] = tested on: BT-549
[47] = tested on: MDA-N
[48] = tested on: NCI-H460
[49] = tested on: SK-OV-3
[50] = tested on: SNB-75
[51] = tested on: SK-MEL-28
[52] = tested on: COLO 205
[53] = tested on: EKVX
[54] = tested on: ACHN
[55] = tested on: MDA-MB-435

`C1=CCC[C@@H]2CN3CCCC/C=C\CCCC[C@H]4C[C@H](CN(CCCCCCCC1)C4)[C@H]2CC3` was tested, and the GI50 [1] was 8.07 µM (inactive), the GI50 [2] was 12.5 µM (inactive) and the GI50 [3] was 7.59 µM (inactive). For the same compound, the GI50 [4] was 10.6 µM (inactive), the GI50 [5] was 8.61 µM (inactive) and the GI50 [6] was 9.46 µM (inactive). For the same compound, the GI50 [7] was > 50 µM (inactive), the GI50 [8] was 12.3 µM (inactive) and the GI50 [9] was 9.25 µM (inactive). The GI50 [10] was 9.23 µM (inactive), the GI50 [11] was 9.18 µM (inactive) and the GI50 [12] was 10.5 µM (inactive). For the same compound, the GI50 [13] was 9.79 µM (inactive), the GI50 [14] was 8.83 µM (inactive) and the GI50 [15] was 8.97 µM (inactive). For the same compound, the GI50 [16] was 10.3 µM (inactive), the GI50 [17] was 9.27 µM (inactive) and the GI50 [18] was 9.04 µM (inactive). The GI50 [19] was 8.45 µM (inactive), the GI50 [20] was 9.33 µM (inactive) and the GI50 [21] was 13.2 µM (inactive). The GI50 [22] was 7.98 µM (inactive), the GI50 [23] was 8.11 µM (inactive) and the GI50 [24] was 9.2 µM (inactive). For the same compound, the GI50 [25] was 12 µM (inactive), the GI50 [26] was 10.9 µM (inactive) and the GI50 [27] was 8.67 µM (inactive). For the same compound, the GI50 [28] was 9.27 µM (inactive), the GI50 [29] was 12.4 µM (inactive) and the GI50 [30] was 10.2 µM (inactive). For the same compound, the GI50 [31] was 9.12 µM (inactive), the GI50 [32] was 12.7 µM (inactive) and the GI50 [33] was 8.51 µM (inactive). For the same compound, the GI50 [34] was 12.8 µM (inactive), the GI50 [35] was 10.4 µM and the GI50 [36] was 9.02 µM (inactive). For the same compound, the GI50 [37] was 8.59 µM (inactive), the GI50 [38] was 10.9 µM (inactive) and the GI50 [39] was 10.2 µM (inactive). The GI50 [40] was 9.79 µM (inactive), the GI50 [41] was 12.2 µM (inactive) and the GI50 [42] was 18.2 µM (inactive). For the same compound, the GI50 [43] was 9.55 µM (inactive), the GI50 [44] was 7.91 µM (inactive) and the GI50 [45] was 9.42 µM (inactive). The GI50 [46] was 12.9 µM (inactive), the GI50 [47] was 8.79 µM (inactive) and the GI50 [48] was 9.75 µM (inactive). The GI50 [49] was > 50 µM (inactive), the GI50 [50] was 8.95 µM (inactive) and the GI50 [51] was 7.93 µM (inactive). For the same compound, the GI50 [52] was 8.28 µM (inactive), the GI50 [53] was 11.3 µM (inactive) and the GI50 [54] was 9.68 µM (inactive). The GI50 [55] was 8.69 µM (inactive).
